Experimental data reported in patent US20230203098A1, “HUMAN TRANSFERRIN RECEPTOR BINDING PEPTIDE” (priority 2020, published 2023).
Where two headings read alike, the source gives them in different places. Where a SMILES comes first, the peptide text is derived from it. Bridges are numbered along the chain shown (N, C = ends). [ ]: non-standard residue; d: D form. The star is where a group is joined. X2 = O=C(O)c1cc(C(=O)*)ccc1-c1c2ccc(=O)cc-2oc2cc(O)ccc12; PEG12 = NCCOCCOCCOCCOCCOCCOCCOCCOCCOCCOCCOCCOCCC(=O)O; NMeW = CN[C@@H](Cc1c[nH]c2ccccc12)C(=O)O; NMeY = CN[C@@H](Cc1ccc(O)cc1)C(=O)O; NMeF = CN[C@@H](Cc1ccccc1)C(=O)O; PEG4 = NCCOCCOCCOCCOCCC(=O)O; Abu = CC[C@H](N)C(=O)O; Aib = CC(C)(N)C(=O)O

Target: transferrin receptor (hTfR) (Homo sapiens, UniProt P02786)
Sequence (P02786 whole entry): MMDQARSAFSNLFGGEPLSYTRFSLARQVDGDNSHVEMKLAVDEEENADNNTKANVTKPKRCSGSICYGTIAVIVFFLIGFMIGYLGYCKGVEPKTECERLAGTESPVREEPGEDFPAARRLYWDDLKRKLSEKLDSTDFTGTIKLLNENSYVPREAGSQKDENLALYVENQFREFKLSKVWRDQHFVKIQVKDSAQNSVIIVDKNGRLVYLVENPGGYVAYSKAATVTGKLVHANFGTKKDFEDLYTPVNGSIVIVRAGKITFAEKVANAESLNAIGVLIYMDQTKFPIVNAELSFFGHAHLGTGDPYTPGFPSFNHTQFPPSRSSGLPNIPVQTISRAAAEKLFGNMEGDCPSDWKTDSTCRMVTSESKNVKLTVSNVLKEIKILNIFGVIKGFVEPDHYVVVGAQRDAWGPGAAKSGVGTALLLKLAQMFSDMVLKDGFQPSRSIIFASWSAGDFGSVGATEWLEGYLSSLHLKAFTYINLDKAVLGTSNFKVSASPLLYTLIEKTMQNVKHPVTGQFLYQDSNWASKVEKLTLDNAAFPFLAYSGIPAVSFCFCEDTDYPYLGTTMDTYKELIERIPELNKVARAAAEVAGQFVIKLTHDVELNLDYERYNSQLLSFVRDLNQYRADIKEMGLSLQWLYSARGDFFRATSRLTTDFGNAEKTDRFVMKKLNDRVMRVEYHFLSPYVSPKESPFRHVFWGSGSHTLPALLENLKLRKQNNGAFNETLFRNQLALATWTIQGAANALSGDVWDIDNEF
Assay: Intermolecular interaction evaluation test between transferrin receptor (hTfR) and peptide by surface plasmon resonance (SPR)
Type: binding
Outline: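 hTfR captured on Ni-NTA chip then amine-coupled; peptides run single-cycle kinetics at 5–100 nM in 10 mM HEPES pH 8.0, 150 mM NaCl, 0.05% Tween 20, 0.1% BSA, 1.0% DMSO. KD from least-squares curve fitting of sensorgrams.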

[1] = surface plasmon resonance, hTfR, read-out: KD value for hTfR by SPR (class symbol)
[2] = surface plasmon resonance, peptide vs hTfR, read-out: KD value, hTfR binding by SPR (class symbol)
[3] = binding to hTfR by SPR, Table 2 peptides, read-out: KD value (SPR) class
[4] = surface plasmon resonance, peptide vs hTfR, read-out: KD value for hTfR by SPR (class symbol)

**Q.** CC[C@H](C)[C@@H]1NC(=O)[C@H](Cc2ccc(OC)cc2)NC(=O)[C@H](Cc2ccc(O)cc2)NC(=O)[C@H](CC(N)=O)NC(=O)[C@H](Cc2c[nH]c3ccccc23)N(C)C(=O)[C@H](C(C)C)NC(=O)[C@H](Cc2cccc(Cl)c2)N(C)C(=O)[C@H](C(C)C)NC(=O)[C@H](C)NC(=O)CSC[C@@H](C(N)=O)NC(=O)[C@H](Cc2ccc(O)cc2)N(C)C(=O)[C@H](CCC(=O)N[C@H](CCC(=O)O)C(=O)O)NC(=O)[C@@H](CCCNC(=N)N)NC(=O)[C@H](CCCNC(=N)N)NC(=O)[C@H]([C@@H](C)CC)NC1=O [compound 391] was tested. Which Kd [1] did it give?
**A.** 1 to 100 nM

**Q.** How did the Kd [2] turn out when CC[C@H](C)[C@@H]1NC(=O)[C@H](Cc2ccc(O)cc2)NC(=O)[C@H](Cc2ccc(O)cc2)NC(=O)[C@H](CC(N)=O)NC(=O)[C@H](Cc2c[nH]c3ccccc23)NC(=O)[C@H](C(C)C)NC(=O)[C@H](Cc2ccccc2)N(C)C(=O)[C@H](C(C)C)NC(=O)[C@H](C)NC(=O)CSC[C@@H](C(N)=O)NC(=O)[C@H](Cc2ccc(O)cc2)N(C)C(=O)[C@H](Cc2ccc(O)cc2)NC(=O)[C@H](CCCNC(=N)N)NC(=O)[C@H](CCCCN)N(C)C(=O)[C@H]([C@@H](C)CC)NC1=O [compound 292] was run?
**A.** 1 to 100 nM

**Q.** Which Kd [3] does the source give for CC[C@H](C)[C@@H]1NC(=O)[C@H](Cc2ccc(O)cc2)NC(=O)[C@H](Cc2ccc(O)cc2)NC(=O)[C@H](CC(N)=O)NC(=O)[C@H](Cc2c[nH]c3ccccc23)N(C)C(=O)[C@H](C(C)C)NC(=O)[C@H](Cc2ccccc2)NC(=O)[C@H](C(C)C)NC(=O)[C@H](C)NC(=O)CSC[C@@H](C(=O)NCCOCCOCCOCCOCCC(N)=O)NC(=O)[C@H](Cc2ccc(O)cc2)N(C)C(=O)[C@H](Cc2ccc(O)cc2)NC(=O)[C@H](CCCNC(=N)N)NC(=O)[C@H](CCCNC(=N)N)NC(=O)[C@H]([C@@H](C)CC)NC1=O [compound 264] here?
**A.** < 1 nM

**Q.** With CC[C@H](C)[C@@H]1NC(=O)[C@H](Cc2ccc(OC)cc2)NC(=O)[C@H](Cc2ccc(O)cc2)NC(=O)[C@H](CC(N)=O)NC(=O)[C@H](Cc2c[nH]c3ccccc23)N(C)C(=O)[C@H](C(C)C)NC(=O)[C@H](Cc2cccc(Cl)c2)N(C)C(=O)[C@H](C(C)C)NC(=O)[C@H](C)NC(=O)CSC[C@@H](C(=O)NCCOCCOCCOCCOCCC(N)=O)NC(=O)[C@H](Cc2ccc(O)cc2)N(C)C(=O)[C@H](Cc2ccccc2)NC(=O)[C@H](CCCNC(=N)N)NC(=O)C(C)(C)NC(=O)[C@H]([C@@H](C)CC)NC1=O [compound 351] as the compound, how does the Kd [1] read?
**A.** 1 to 100 nM

**Q.** CC[C@H](C)[C@@H]1NC(=O)[C@H](Cc2ccc(OC)cc2)NC(=O)[C@H](Cc2ccc(O)cc2)NC(=O)[C@H](CC(N)=O)NC(=O)[C@H](Cc2c[nH]c3ccccc23)N(C)C(=O)[C@H](C(C)C)NC(=O)[C@H](Cc2ccncc2)N(C)C(=O)[C@H](C(C)C)NC(=O)[C@H](C)NC(=O)CSC[C@@H](C(N)=O)NC(=O)[C@H](Cc2ccc(O)cc2)N(C)C(=O)[C@H](Cc2ccccc2)NC(=O)[C@@H](CCCNC(=N)N)NC(=O)[C@H](CCCNC(=N)N)NC(=O)[C@H]([C@@H](C)CC)NC1=O [compound 451] was tested. Which Kd (SPR, hTfR, class symbols A-D, read-out: KD) did it give?
**A.** 100 to 1000 nM

**Q.** CC[C@H](C)[C@@H]1NC(=O)[C@H](Cc2ccc(O)cc2)NC(=O)[C@H](Cc2ccc(O)cc2)NC(=O)[C@H](CC(N)=O)NC(=O)[C@H](Cc2c[nH]c3ccccc23)N(C)C(=O)[C@H](C(C)C)NC(=O)[C@H](Cc2ccccc2)N(C)C(=O)[C@H](C(C)C)NC(=O)[C@H](C)NC(=O)CSC[C@@H](C(N)=O)NC(=O)[C@H](Cc2ccc(O)cc2)N(C)C(=O)[C@H](Cc2ccc(O)cc2)NC(=O)[C@H](CCCNC(=N)N)NC(=O)[C@H](CCCNC(=N)N)NC(=O)[C@H]([C@@H](C)CC)NC1=O [compound 299] was tested. Which Kd [2] did it give?
**A.** 1 to 100 nM

**Q.** Which Kd (SPR, hTfR No. 894 variants with PEG12c linker (Table 2), read-out: KD) does the source give for CC[C@@H]1NC(=O)CSC[C@@H](C(=O)NCCOCCOCCOCCOCCOCCOCCOCCOCCOCCOCCOCCOCCC(N)=O)NC(=O)[C@H](Cc2ccc(O)cc2)N(C)C(=O)[C@H](Cc2ccc(O)cc2)NC(=O)[C@H](CCCNC(=N)N)NC(=O)[C@H](CCCNC(=N)N)NC(=O)[C@H]([C@@H](C)CC)NC(=O)[C@H]([C@@H](C)CC)NC(=O)[C@H](Cc2ccc(O)cc2)NC(=O)[C@H](Cc2ccc(O)cc2)NC(=O)[C@H](CC(N)=O)NC(=O)[C@H](Cc2c[nH]c3ccccc23)NC(=O)[C@H](C(C)C)NC(=O)[C@H](Cc2ccccc2)N(C)C(=O)[C@H](C(C)C)NC1=O [compound 111] ({CH2CO}-[Abu]V[NMeF]VWNYYIIRRY[NMeY]C[PEG12]-NH2; thioether N-15) here?
**A.** 1 to 100 nM

**Q.** CC[C@H](C)[C@@H]1NC(=O)[C@H](Cc2ccc(O)cc2)NC(=O)[C@H](Cc2ccc(O)cc2)NC(=O)[C@H](CC(N)=O)NC(=O)[C@H](Cc2c[nH]c3ccccc23)N(C)C(=O)[C@H](C(C)C)NC(=O)[C@H](Cc2cccc(Cl)c2)N(C)C(=O)[C@@H]2CCC(=O)NCCCC[C@H](NC(=O)[C@H]([C@@H](C)CC)NC1=O)C(=O)N[C@@H](CCCNC(=N)N)C(=O)N[C@@H](Cc1ccc(O)cc1)C(=O)N(C)[C@@H](Cc1ccc(O)cc1)C(=O)N[C@H](C(N)=O)CSCC(=O)N[C@@H](C)C(=O)N2 [compound 412] was tested. Which Kd [4] did it give?
**A.** 1 to 100 nM

**Q.** How did the Kd [2] turn out when CC[C@H](C)[C@@H]1NC(=O)[C@H](Cc2ccc(OC)cc2)NC(=O)[C@H](Cc2ccc(O)cc2)NC(=O)[C@H](CC(N)=O)NC(=O)[C@H](Cc2c[nH]c3ccccc23)N(C)C(=O)[C@H](C(C)C)NC(=O)[C@H](Cc2ccccc2)N(C)C(=O)[C@H](C(C)C)NC(=O)[C@H](C)NC(=O)CSC[C@@H](C(=O)NCCOCCOCCOCCOCCC(N)=O)NC(=O)[C@H](Cc2ccc(O)cc2)N(C)C(=O)[C@H](Cc2ccccc2)NC(=O)[C@@H](CCCNC(=N)N)NC(=O)C(C)(C)NC(=O)[C@H]([C@@H](C)CC)NC1=O [compound 301] ({CH2CO}-AV[NMeF]V[NMeW]NYY(Me)II[Aib][dR]F[NMeY]C[PEG4]-NH2; thioether N-15) was run?
**A.** 1 to 100 nM

**Q.** Which Kd (SPR, peptides, linker-added peptides and FITC conjugates, Patent ID 203-230, read-out: KD) does the source give for CC[C@H](C)[C@@H]1NC(=O)[C@H](Cc2ccc(O)cc2)NC(=O)[C@H](Cc2ccc(O)cc2)NC(=O)[C@H](CC(N)=O)NC(=O)[C@H](Cc2c[nH]c3ccccc23)NC(=O)[C@H](C(C)C)NC(=O)[C@H](Cc2ccccc2)NC(=O)[C@H](C(C)C)NC(=O)[C@H](C)NC(=O)CSC[C@@H](C(=O)NCCOCCOCCOCCOCCOCCOCCOCCOCCOCCOCCOCCOCCC(=O)N[C@@H](CCCCNC(=O)c2ccc(-c3c4ccc(=O)cc-4oc4cc(O)ccc34)c(C(=O)O)c2)C(N)=O)NC(=O)[C@H](CC(N)=O)NC(=O)[C@H](CCCNC(=N)N)NC(=O)[C@@H]2CCCN2C(=O)[C@H](C(C)C)NC1=O [compound 212] ({CH2CO}-AVFVWNYYIVPRNC[PEG12]K(X2)-NH2; thioether N-14) here?
**A.** 1 to 100 nM

**Q.** With CC[C@H](C)[C@@H]1NC(=O)[C@H](Cc2ccc(O)cc2)NC(=O)[C@H](Cc2ccc(O)cc2)NC(=O)[C@H](CC(N)=O)NC(=O)[C@H](Cc2c[nH]c3ccccc23)N(C)C(=O)[C@H](C(C)C)NC(=O)[C@H](Cc2cccc(Cl)c2)N(C)C(=O)[C@@H]2CCC(=O)N3CCC[C@@H]3C(=O)NCCCC[C@H](NC(=O)[C@H]([C@@H](C)CC)NC1=O)C(=O)N[C@@H](CCCNC(=N)N)C(=O)N[C@@H](Cc1ccc(O)cc1)C(=O)N(C)[C@@H](Cc1ccc(O)cc1)C(=O)N[C@H](C(N)=O)CSCC(=O)N[C@@H](C)C(=O)N2 [compound 416] as the compound, how does the Kd [4] read?
**A.** 1 to 100 nM

**Q.** CC[C@H](C)[C@@H]1NC(=O)[C@H](Cc2ccc(OC)cc2)NC(=O)[C@H](Cc2ccc(O)cc2)NC(=O)[C@H](CC(N)=O)NC(=O)[C@H](Cc2c[nH]c3ccccc23)N(C)C(=O)[C@H](C(C)C)NC(=O)[C@H](Cc2cccc(Cl)c2)N(C)C(=O)[C@H](C(C)C)NC(=O)[C@H](C)NC(=O)CSC[C@@H](C(N)=O)NC(=O)[C@H](Cc2ccc(O)cc2)N(C)C(=O)[C@H](Cc2ccccc2)NC(=O)[C@H](CCC(=O)NCCOCCOCCOCCOCCOCCOCCOCCOC)NC(=O)[C@H](CCCNC(=N)N)NC(=O)[C@H]([C@@H](C)CC)NC1=O [compound 384] was tested. Which Kd [1] did it give?
**A.** < 1 nM

**Q.** With CC[C@H](C)[C@@H]1NC(=O)[C@H](Cc2ccc(O)cc2)NC(=O)[C@H](Cc2ccc(O)cc2)NC(=O)[C@H](CC(N)=O)NC(=O)[C@H](Cc2c[nH]c3ccccc23)NC(=O)[C@H](C(C)C)NC(=O)[C@H](Cc2ccccc2)NC(=O)[C@H](C(C)C)NC(=O)[C@H](C)NC(=O)CSC[C@@H](C(N)=O)NC(=O)[C@H](Cc2ccc(O)cc2)N(C)C(=O)[C@H](CCCCN)NC(=O)[C@H](CCCNC(=N)N)NC(=O)[C@H](CCCNC(=N)N)NC(=O)[C@H]([C@@H](C)CC)NC1=O [compound 261] as the compound, how does the Kd [3] read?
**A.** 1 to 100 nM

**Q.** Which Kd [2] does the source give for CC[C@H](C)[C@@H]1NC(=O)[C@H](Cc2ccc(OC)cc2)NC(=O)[C@H](Cc2ccc(O)cc2)NC(=O)[C@H](CC(N)=O)NC(=O)[C@H](Cc2c[nH]c3ccccc23)N(C)C(=O)[C@H](C(C)C)NC(=O)[C@H](Cc2cccc(Cl)c2)N(C)C(=O)[C@H](C(C)C)NC(=O)[C@H](C)NC(=O)CSC[C@@H](C(=O)NCC(=O)N[C@@H](CCCCN=[N+]=[N-])C(N)=O)NC(=O)[C@H](Cc2ccc(O)cc2)N(C)C(=O)[C@H](Cc2ccccc2)NC(=O)[C@@H](CCCNC(=N)N)NC(=O)[C@H](CCCNC(=N)N)NC(=O)[C@H](CCC(=O)O)NC1=O [compound 340] here?
**A.** 1 to 100 nM

**Q.** Which Kd [1] does the source give for CC[C@H](C)[C@@H]1NC(=O)[C@H](Cc2ccc(OC)cc2)NC(=O)[C@H](Cc2ccc(O)cc2)NC(=O)[C@H](CC(N)=O)NC(=O)[C@H](Cc2c[nH]c3ccccc23)N(C)C(=O)[C@H](C(C)C)NC(=O)[C@H](Cc2cccc(Cl)c2)N(C)C(=O)[C@H](C(C)C)NC(=O)[C@H](C)NC(=O)CSC[C@H](C(N)=O)NC(=O)[C@H](Cc2ccc(O)cc2)N(C)C(=O)[C@H](Cc2ccccc2)NC(=O)[C@@H](CCCNC(=N)N)NC(=O)[C@H](CCCNC(=N)N)NC(=O)[C@H]([C@@H](C)CC)NC1=O [compound 396] here?
**A.** 1 to 100 nM
